Experimental data taken from publication PMC8300879 (Journal of medicinal chemistry, 2021).

How the values were obtained:
[1] = test system: tubulin acetylation (the client protein of HDAC6) in NB4, U87 and U2OS cells; experiment: Western blot, acetylation of α-tubulin in cancer cell lines; assay type: cell-based; details: 5 μM for 30 h; for acetylation of tubulin: NB4 and U87 cells
[2] = test system: acetylation of histone H3 (primary substrate of HDAC1 and other nuclear HDACs) in NB4, U87 and U2OS cells; experiment: Western blot, acetylation of histone H3 in cancer cell lines; assay type: cell-based; details: 5 μM for 30 h
[3] = test system: ABC derived from IPF patients; experiment: 3D organoid; assay type: cell-based, human; details: ABC from IPF patients (n = 3), 14 days
[4] = test system: TGF-β1-stimulated human lung parenchyma; experiment: Human lung tissue explant model of TGF-β1-dependent fibrogenesis; assay type: cell-based; details: 6h 4.1 μM, TGF-β1 10 ng/ml, 7 days
[5] = test system: zebrafish larvae (Danio rerio); experiment: Toxicity screen and optokinetic visual behaviour assay in zebrafish larvae; assay type: in vivo
[6] = test system: TA98 and TA100 strains of Salmonella typhimurium; experiment: Ames test with and without S9 fraction; assay type: cell-based; details: TA98 and TA100, with and without S9 fraction of rat liver, 1–75 μM

SMILES	acetylation of tubulin [1]	histone H3 acetylation [2]	spheres formation [3]	mRNA expression for HDAC6 ([4]; n = 3 donors)	mRNA expression for collagen type I ([4]; n = 6 donors)	mRNA expression for collagen type III ([4]; n = 6 donors)	mRNA expression for fibronectin ([4]; n = 6 donors)	mRNA expression for α-SMA ([4]; n = 6 donors)	toxic effects observed ([5]; 100 μM, 3 days old larvae treated for 2 days)	well tolerated concentration ([5]; 3 days old larvae treated for 2 days, 1-100 μM)	visual behavior versus vehicle control (0.1% DMSO) ([5]; five days old larvae, 1 to 100 μM)	mutagenic effect [6]	acetylation of α-tubulin versus histone H3 ([1]; U2OS cell line)
CN1CCC2(CC1)c1ccccc1N(Cc1ccc(C(=O)NO)cc1)C2c1ccccc1F (racemic) [(±)-6d, (±)-4-((2-(2-Fluorophenyl)-1’-methylspiro[indoline-3,4’-piperidin]-1-yl)methyl)-N-hydroxybenzamide]	equally effective in inhibiting HDAC6	also induced the acetylation of histone H3	complete inhibition										
CC1(C)c2ccccc2N(Cc2ccc(C(=O)NO)cc2)C1c1cccnc1 (racemic) [(±)-6h, (±)-4-((3,3-Dimethyl-2-(pyridin-3-yl)indolin-1-yl)methyl)-N-hydroxybenzamide]	marked acetylation of tubulin	unchanged	complete inhibition	significantly inhibited	significantly inhibited	significantly inhibited	significantly inhibited	significantly inhibited	some larvae failed to inflate their swim bladder and presented mild cardiac edema	up to 50 μM	no significant changes	no mutagenic effect	
CN1CCC2(CC1)c1ccccc1N(Cc1ccc(C(=O)NO)cc1)C2c1ccc(F)cc1 (racemic) [(±)-6e, (±)-4-((2-(4-Fluorophenyl)-1’-methylspiro[indoline-3,4’-piperidin]-1-yl)methyl)-N-hydroxybenzamide]	marked acetylation of tubulin	unchanged											
CC1(C)c2ccccc2N(Cc2ccc(C(=O)NO)cc2)C1c1ccncc1 (racemic) [(±)-6l]	marked acetylation of tubulin	unchanged	complete inhibition										preferentially promote acetylation of α-tubulin
CN1CCC2(CC1)c1ccccc1N(Cc1ccc(C(=O)NO)cc1)C2c1ccccc1 (racemic) [(±)-6a, (±)-N-Hydroxy-4-((1’-methyl-2-phenylspiro[indoline-3,4’-piperidin]-1-yl)methyl)benzamide]	marked acetylation of tubulin	unchanged	complete inhibition										
